Tests used:
Type in all cases: binding
[1] = target: T1, panel of 442 kinases (Homo sapiens, UniProt P07949, V804L); assay: biochemical; conditions: kinase RET(V804L); for remaining activity at 1 µM: read-out: RET(V804L) (% of control at 1 µM)
T1 construct: purchased Ambit Biosciences (scanMAXX KINOMEscan)

[2] = target: T2, panel of 442 kinases (Homo sapiens, UniProt P53779); assay: biochemical; conditions: kinase JNK3; for remaining activity at 1 µM: read-out: % of control at 1 µM
T2 construct: purchased Ambit Biosciences (scanMAXX KINOMEscan)

[3] = target: T3, panel of 442 kinases (Homo sapiens, UniProt O94921); assay: biochemical; conditions: kinase PFTK1; for remaining activity at 1 µM: read-out: % of control at 1 µM
T3 construct: purchased Ambit Biosciences (scanMAXX KINOMEscan)

[4] = target: T4, panel of 442 kinases (Homo sapiens, UniProt Q9Y2K2); assay: biochemical; conditions: kinase QSK; for remaining activity at 1 µM: read-out: QSK (% of control at 1 µM)
T4 construct: purchased Ambit Biosciences (scanMAXX KINOMEscan)

[5] = target: T5, panel of 442 kinases (Homo sapiens, UniProt P30291); assay: biochemical; conditions: kinase WEE1; for remaining activity at 1 µM: read-out: WEE1 (% of control at 1 µM)
T5 construct: purchased Ambit Biosciences (scanMAXX KINOMEscan)

[6] = target: T6, panel of 442 kinases (Homo sapiens, UniProt O75460); assay: biochemical; conditions: ERN1; for remaining activity at 1 µM: read-out: % of control at 1 µM
T6 construct: purchased Ambit Biosciences (scanMAXX KINOMEscan)

[7] = target: T7, panel of 442 kinases (Homo sapiens, UniProt P54756); assay: biochemical; conditions: EPHA5; for remaining activity at 1 µM: read-out: % of control at 1 µM
T7 construct: purchased Ambit Biosciences (scanMAXX KINOMEscan)

[8] = target: T8, panel of 442 kinases (Homo sapiens, UniProt Q00526); assay: biochemical; conditions: CDK3; for remaining activity at 1 µM: read-out: % of control at 1 µM
T8 construct: purchased Ambit Biosciences (scanMAXX KINOMEscan)

[9] = target: T9, panel of 442 kinases (Homo sapiens, UniProt P51955); assay: biochemical; conditions: kinase NEK2; for remaining activity at 1 µM: read-out: % of control at 1 µM
T9 construct: purchased Ambit Biosciences (scanMAXX KINOMEscan)
T9 sequence (P51955 1-445): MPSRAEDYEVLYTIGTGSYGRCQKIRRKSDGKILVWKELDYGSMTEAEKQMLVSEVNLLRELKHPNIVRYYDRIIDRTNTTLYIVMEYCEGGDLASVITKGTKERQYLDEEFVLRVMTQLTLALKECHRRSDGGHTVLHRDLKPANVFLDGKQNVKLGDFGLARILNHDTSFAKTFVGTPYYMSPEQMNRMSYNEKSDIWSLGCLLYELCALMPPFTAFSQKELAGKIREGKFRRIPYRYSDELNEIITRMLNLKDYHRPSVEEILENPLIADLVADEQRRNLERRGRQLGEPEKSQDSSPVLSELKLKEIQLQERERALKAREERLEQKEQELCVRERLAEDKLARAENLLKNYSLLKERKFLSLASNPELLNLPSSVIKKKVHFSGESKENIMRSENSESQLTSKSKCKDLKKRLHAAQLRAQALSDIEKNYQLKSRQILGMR

[10] = target: T10, panel of 442 kinases (Homo sapiens, UniProt Q9HBH9); assay: biochemical; conditions: kinase MKNK2; for remaining activity at 1 µM: read-out: % of control at 1 µM
T10 construct: purchased Ambit Biosciences (scanMAXX KINOMEscan)

[11] = target: T11, panel of 442 kinases (Homo sapiens, UniProt Q9NYL2); assay: biochemical; conditions: kinase ZAK; for remaining activity at 1 µM: read-out: ZAK (% of control at 1 µM)
T11 construct: purchased Ambit Biosciences (scanMAXX KINOMEscan)

[12] = target: T12, CLK2 (Homo sapiens, UniProt P49760); assay: KINOMEscan, CLK2; conditions: for remaining binding at 1 µM: read-out: % of control at 1 µM
T12 construct: purchased Ambit Biosciences (scanMAXX KINOMEscan)

[13] = 10 µM, read-out: % of control at 10 µM

T8 sequence (Q00526 whole entry): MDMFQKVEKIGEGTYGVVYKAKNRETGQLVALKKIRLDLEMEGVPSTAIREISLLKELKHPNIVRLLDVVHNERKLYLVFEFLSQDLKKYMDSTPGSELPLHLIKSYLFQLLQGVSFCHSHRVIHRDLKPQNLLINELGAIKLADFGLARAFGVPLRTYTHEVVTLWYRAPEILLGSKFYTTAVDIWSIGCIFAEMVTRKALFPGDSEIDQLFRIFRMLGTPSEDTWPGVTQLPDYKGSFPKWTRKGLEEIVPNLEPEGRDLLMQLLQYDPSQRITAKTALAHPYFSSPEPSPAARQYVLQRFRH
T11 sequence (Q9NYL2 whole entry): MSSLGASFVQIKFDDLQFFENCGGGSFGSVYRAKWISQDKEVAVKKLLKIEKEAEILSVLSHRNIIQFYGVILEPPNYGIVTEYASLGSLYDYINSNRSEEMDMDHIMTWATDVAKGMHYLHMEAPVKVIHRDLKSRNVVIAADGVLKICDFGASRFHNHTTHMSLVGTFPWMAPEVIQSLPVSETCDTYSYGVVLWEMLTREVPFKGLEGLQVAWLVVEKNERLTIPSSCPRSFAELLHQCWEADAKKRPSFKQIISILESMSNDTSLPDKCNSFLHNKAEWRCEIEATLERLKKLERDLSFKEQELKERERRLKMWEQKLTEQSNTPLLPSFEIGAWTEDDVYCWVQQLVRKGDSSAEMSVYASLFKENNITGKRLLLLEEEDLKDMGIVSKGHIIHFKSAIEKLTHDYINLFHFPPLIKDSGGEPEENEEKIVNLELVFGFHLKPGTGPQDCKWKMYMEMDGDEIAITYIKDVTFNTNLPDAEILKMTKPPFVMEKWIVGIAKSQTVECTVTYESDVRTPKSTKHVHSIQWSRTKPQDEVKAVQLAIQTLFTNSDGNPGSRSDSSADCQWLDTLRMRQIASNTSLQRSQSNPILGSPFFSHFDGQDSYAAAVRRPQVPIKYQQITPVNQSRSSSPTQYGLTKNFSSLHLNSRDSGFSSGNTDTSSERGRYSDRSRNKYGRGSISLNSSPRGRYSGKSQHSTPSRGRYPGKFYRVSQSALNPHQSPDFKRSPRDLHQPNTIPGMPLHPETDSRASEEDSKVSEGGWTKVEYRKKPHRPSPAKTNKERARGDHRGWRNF
T1 sequence (P07949 29-1114 V804L): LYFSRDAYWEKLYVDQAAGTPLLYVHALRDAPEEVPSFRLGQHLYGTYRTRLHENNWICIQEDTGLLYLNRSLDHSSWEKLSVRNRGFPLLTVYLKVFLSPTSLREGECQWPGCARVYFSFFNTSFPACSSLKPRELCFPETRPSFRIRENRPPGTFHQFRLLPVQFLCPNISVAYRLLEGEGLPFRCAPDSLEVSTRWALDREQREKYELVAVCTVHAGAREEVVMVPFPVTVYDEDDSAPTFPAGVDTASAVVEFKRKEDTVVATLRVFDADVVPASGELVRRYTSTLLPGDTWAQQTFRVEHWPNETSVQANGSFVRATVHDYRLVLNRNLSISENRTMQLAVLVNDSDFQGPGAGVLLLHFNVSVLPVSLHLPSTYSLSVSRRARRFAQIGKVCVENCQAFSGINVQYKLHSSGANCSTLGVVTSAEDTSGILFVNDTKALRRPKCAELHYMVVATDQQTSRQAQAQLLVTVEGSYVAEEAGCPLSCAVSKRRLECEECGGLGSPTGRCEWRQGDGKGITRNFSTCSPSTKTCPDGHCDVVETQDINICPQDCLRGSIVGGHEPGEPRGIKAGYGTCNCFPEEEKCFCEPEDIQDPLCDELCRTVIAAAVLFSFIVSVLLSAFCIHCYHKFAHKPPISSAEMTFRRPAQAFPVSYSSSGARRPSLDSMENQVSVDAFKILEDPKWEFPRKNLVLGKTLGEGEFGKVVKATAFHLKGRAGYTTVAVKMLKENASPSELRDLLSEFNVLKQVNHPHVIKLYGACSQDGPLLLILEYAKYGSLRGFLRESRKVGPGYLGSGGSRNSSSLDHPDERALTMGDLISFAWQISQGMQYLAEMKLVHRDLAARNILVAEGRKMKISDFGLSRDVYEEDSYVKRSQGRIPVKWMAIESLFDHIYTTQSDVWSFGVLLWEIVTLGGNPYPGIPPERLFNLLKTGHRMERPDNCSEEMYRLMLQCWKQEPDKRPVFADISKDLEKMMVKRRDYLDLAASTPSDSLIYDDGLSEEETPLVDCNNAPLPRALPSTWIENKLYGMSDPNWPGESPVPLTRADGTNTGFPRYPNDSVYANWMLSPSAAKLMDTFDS
T10 sequence (Q9HBH9 whole entry): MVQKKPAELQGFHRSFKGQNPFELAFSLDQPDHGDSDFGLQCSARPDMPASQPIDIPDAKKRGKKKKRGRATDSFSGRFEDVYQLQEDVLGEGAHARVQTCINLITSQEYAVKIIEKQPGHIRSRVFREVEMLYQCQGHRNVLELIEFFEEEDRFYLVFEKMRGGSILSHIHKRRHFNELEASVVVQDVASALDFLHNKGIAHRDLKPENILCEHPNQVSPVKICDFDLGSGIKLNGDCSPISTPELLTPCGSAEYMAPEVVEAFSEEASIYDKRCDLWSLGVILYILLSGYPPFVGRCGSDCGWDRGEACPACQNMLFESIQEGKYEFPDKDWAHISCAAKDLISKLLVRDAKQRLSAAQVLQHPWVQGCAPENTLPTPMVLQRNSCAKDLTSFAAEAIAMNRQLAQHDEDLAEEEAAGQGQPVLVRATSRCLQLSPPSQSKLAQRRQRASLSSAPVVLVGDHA
T4 sequence (Q9Y2K2 whole entry): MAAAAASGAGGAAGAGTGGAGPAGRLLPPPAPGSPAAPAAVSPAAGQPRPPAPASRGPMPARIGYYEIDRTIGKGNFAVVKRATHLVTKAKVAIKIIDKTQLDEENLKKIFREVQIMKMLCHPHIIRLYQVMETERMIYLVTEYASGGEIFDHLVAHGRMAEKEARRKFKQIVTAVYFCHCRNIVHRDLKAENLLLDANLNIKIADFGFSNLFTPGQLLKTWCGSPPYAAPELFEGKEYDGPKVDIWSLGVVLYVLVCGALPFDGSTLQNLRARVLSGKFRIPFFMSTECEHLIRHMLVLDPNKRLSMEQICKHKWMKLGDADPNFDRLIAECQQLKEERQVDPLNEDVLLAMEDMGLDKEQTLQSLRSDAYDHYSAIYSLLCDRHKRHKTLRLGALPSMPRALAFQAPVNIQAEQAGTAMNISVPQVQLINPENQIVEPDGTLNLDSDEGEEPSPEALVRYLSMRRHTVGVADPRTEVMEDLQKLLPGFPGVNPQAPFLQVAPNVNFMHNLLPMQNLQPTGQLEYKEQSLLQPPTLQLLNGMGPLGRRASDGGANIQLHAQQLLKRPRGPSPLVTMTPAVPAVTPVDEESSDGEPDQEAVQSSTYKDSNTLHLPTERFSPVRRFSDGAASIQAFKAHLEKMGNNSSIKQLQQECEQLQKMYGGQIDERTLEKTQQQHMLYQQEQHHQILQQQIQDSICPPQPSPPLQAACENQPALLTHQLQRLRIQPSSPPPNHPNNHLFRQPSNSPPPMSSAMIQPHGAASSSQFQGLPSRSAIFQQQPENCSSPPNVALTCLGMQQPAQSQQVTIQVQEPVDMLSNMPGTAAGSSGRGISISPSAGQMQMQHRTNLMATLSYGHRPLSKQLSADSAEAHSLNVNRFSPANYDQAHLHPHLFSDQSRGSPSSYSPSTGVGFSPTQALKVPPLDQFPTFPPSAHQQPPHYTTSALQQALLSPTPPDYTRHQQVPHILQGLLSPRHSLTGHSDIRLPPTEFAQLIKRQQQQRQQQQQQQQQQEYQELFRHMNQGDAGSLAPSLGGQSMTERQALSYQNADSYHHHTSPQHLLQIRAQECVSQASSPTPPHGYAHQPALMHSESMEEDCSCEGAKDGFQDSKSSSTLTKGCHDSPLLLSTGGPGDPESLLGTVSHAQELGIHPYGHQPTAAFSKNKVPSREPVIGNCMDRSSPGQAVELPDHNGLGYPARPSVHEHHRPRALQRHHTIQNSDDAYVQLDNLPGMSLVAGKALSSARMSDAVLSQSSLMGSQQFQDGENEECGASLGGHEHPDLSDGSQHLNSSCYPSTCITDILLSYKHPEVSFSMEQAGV
T12 sequence (P49760 whole entry): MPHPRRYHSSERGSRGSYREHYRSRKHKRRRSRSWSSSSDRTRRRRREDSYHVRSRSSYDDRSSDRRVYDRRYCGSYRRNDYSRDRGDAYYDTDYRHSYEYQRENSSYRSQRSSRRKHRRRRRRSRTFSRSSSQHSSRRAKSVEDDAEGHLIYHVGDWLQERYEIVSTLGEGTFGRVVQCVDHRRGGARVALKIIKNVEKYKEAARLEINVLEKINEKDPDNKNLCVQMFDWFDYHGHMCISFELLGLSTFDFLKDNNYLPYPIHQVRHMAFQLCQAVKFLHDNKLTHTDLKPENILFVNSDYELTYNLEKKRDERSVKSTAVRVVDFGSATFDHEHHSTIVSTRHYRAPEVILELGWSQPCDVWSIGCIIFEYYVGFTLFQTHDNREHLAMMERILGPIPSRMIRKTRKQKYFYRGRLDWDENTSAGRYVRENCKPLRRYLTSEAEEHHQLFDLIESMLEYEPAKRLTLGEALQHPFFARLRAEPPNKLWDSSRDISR
T3 sequence (O94921 whole entry): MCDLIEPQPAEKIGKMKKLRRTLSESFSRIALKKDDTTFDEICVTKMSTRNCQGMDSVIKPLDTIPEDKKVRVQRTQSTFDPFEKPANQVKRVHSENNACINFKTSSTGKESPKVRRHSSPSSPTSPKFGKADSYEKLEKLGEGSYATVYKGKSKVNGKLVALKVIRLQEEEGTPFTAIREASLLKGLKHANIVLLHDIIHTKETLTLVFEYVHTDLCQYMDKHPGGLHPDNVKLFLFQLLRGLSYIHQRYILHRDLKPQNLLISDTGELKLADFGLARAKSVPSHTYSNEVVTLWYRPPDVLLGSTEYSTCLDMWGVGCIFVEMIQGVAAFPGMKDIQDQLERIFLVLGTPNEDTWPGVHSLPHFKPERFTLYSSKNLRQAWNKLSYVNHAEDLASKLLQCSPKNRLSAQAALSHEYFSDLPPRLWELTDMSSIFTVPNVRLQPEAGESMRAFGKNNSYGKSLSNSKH

SMILES | remaining activity at 1 µM [1] [%] | remaining activity at 1 µM [2] [%] | remaining activity at 1 µM [3] [%] | remaining activity at 1 µM [4] [%] | remaining activity at 1 µM [5] [%] | remaining activity at 1 µM [6] [%] | remaining activity at 1 µM [7] [%] | remaining activity at 1 µM [8] [%] | remaining activity at 1 µM [9] [%] | remaining activity at 1 µM [10] [%] | remaining activity at 1 µM [11] [%] | remaining binding at 1 µM ([12]; CLK2) [%] | other results
Nc1cc(C(F)(F)F)c(-c2cc(N3CCOCC3)nc(N3CCOCC3)n2)cn1 [Buparlisib] | 100 | 100 | 100 | 100 | 100 | 100 | 100 | 100 | 84 | 90 | 85 | 29 | remaining activity at 10 µM ([1]; 10 µM, read-out: RET(V804L) (% of control at 10 µM)): 100%; remaining activity at 10 µM [2, 13]: 100%; remaining activity at 10 µM [3, 13]: 97%; remaining activity at 10 µM ([4]; 10 µM, read-out: QSK (% of control at 10 µM)): 100%; remaining activity at 10 µM ([5]; 10 µM, read-out: WEE1 (% of control at 10 µM)): 100%; remaining activity at 10 µM [6, 13]: 100%; remaining activity at 10 µM [7, 13]: 100%; remaining activity at 10 µM [8, 13]: 100%; remaining activity at 10 µM [9, 13]: 86%; remaining activity at 10 µM [10, 13]: 80%; remaining activity at 10 µM ([11]; 10 µM, read-out: ZAK (% of control at 10 µM)): 90%; binding to CLK2 ([12]; 10 μM): > 80%; remaining binding at 10 µM ([12]; CLK2, 10 µM, read-out: % of control at 10 µM): 18%
Cn1c(=O)n(-c2ccc(C(C)(C)C#N)cc2)c2c3cc(-c4cnc5ccccc5c4)ccc3ncc21 [Dactolisib, 2-methyl-2-[4-(3-methyl-2-oxo-8-quinolin-3-yl-2,3-dihydroimidazo[4,5-c]quinolin-1-yl)-phenyl] propionitrile] | 99 | 100 | 98 | 100 | 100 | 100 |  | 100 | 88 | 100 | 55 | 81 | 
COc1ncc(-c2ccc3nccc(-c4ccnnc4)c3c2)cc1NS(=O)(=O)c1ccc(F)cc1F [Omipalisib] | 99 | 90 | 97 | 100 | 100 | 73 | 100 | 82 | 100 | 98 | 81 | 92 | 
FC(F)c1nc2ccccc2n1-c1nc(N2CCOCC2)nc(N2CCOCC2)n1 [ZSTK474, 2-(difluoromethyl)-1-[4,6-di(4-morpholinyl)-1,3,5-triazin-2-yl]-1H-benzimidazole] | 93 | 100 | 100 | 65 | 100 | 90 | 100 | 100 | 87 | 100 | 92 | 100 | 

Reference: publication PMC5564600 (Oncotarget, 2017)
